# Source: publication PMC9028219 (Frontiers in Nutrition, 2022)
# Test system: Sarcoma-180 (S-180) tumor
# Conditions: 20 mg/kg bw i.p.
# Protocol: The S-180 cells were collected from Swiss albino mice harboring 8–10 days old cells from the peritoneal cavity. On day 0, the S-180 cells (1 × 10^7 cells/ml) were injected intra-peritoneal in non-inbred female Swiss albino mice (22–25 g, 8–10 weeks old) selected for the experiment. The next day (Day 1), the animals were randomized and divided into three treatment groups, one positive control group and one vehicle control group containing 5 animals in each group. […] The fourth group was given 5-fluorouracil; positive control at a dose of 20 mg/kg bw i.p. from day 1–9, and the fifth group (control) was administered normal saline (0.2 ml i.p.) for 9 days. On day 12, the animals were sacrificed, and the fluid was collected from each mouse's peritoneal cavity to evaluate tumor growth ([43]). The tumor growth inhibition was calculated using the following formula.
# Tumor Growth Inhibition(%)=(Number of tumor cells in control group-Number of tumor cells in the test group)/Number of tumor cells in the control group×100
# [1] = days 1-9, evaluated day 12, n = 5
structure (smiles),measurement,setting,value
"O=c1[nH]cc(F)c(=O)[nH]1 [5 FU, 5-fluorouracil, reference compound]",Tumor growth inhibition,"days 1-9, evaluated day 12",93.75%
same,Tumor cell count Mean ± S.E,[1],5 ± 0.28^*** 1 × 10^7
same,Tumor volume Mean ± S.E,[1],0.16 ± 0.01 mL
same,Tumor weight Mean ± S.E,[1],0.16 ± 0.01 g
